This note sets out measurements from patent US12084680B2, “Methods for efficient derivation of human motor neurons from diverse spinal regions” (Wisconsin Alumni Research Foundation, priority 2016, dated 2024).

Structures are written as SMILES.

The test system of assay [1] is H9 ishcat2 hESC line. In words: Doxycycline-inducible shRNA knockdown of β-catenin (CTNNB1) during motor neuron differentiation. It counts as cell-based, human. The note with it: H9 ishcat2, 3 days shRNA CTNNB1 knockdown upstream of CHIR 4 μM, day 3. The method, then: In the ventral neural tube, SHH signaling generates OLIG2^+ motor neuron progenitors that subsequently mature into post-mitotic ISL1^+ and/or HB9^+ motor neurons. To probe the role of Wnt/β-catenin signaling during this process in vitro, we utilized the H9 ishcat2 hESC line, which harbors a doxycycline-inducible shRNA against CTNNB1.
Similarly, we induced β-catenin knockdown while differentiating the hESCs into motor neurons via E6 neural induction with RA (1 μM), purmorphamine (PM, a small molecule agonist of sonic hedgehog signaling; 100 nM), and neurotrophic factor treatment, as previously described (FIG. 3A).
(§1) NKX6.1 is the earliest expressed marker in the motor neuron development cascade in vivo, so we examined its expression in response to Wnt/β-catenin, RA, and SHH signaling during hPSC motor neuron differentiation. H9 hESCs were differentiated in E6 medium for 2 days to initiate neural fate acquisition34 and then treated with combinations of RA, purmorphamine (PM, a small molecule agonist of SHH signaling), and CHIR for 24 h (FIG. 4A). […] Using the H9 ishcat2 line, we observed that CHIR-mediated induction of NKX6.1 was β-catenin-dependent, as the optimal 3 days of shRNA-mediated CTNNB1 knockdown upstream of CHIR treatment was required to maximally reduce NKX6.1 induction to 44±1% (FIG. 4E). The correlation between NKX6.1 knockdown and days of doxycycline treatment was presumably due to the time delay for shRNA synthesis and subsequent gene knockdown in Tet-on systems. […] Exogenously added WNT3A (200 ng/mL) could also induce NKX6.1 expression (60±14%) (FIG. 4G), providing further evidence for the involvement of Wnt/β-catenin signaling in this process. In contrast, simultaneous treatment with CHIR and BMP4 (200 ng/mL), a dorsal patterning factor, reduced the expression of NKX6.1 from 91±1% to 68±2% (FIG. 4H).
hESCs were maintained on Matrigel (BD Biosciences) in E8 medium but with 10-fold lower insulin concentration (2 mg/L). Cell lines used in this study were H9 hESCs (passage 25-45) and H9 ishcat2 hESCs (passage 35-45). […]

Assay [2] relates to H9 hESCs. The experiment in a line: NKX6.1 induction in neurally differentiating H9 hESCs after 24 h treatment (flow cytometry, RT-PCR, day 3). It is filed as cell-based, human. The method, then:
as §1
hESCs were dissociated with accutase (Thermo Fisher Scientific) and reseeded at 1×10^5 cells/cm2 in E8 medium containing 10 μM ROCK inhibitor (Y27632; R&D Systems) on 6-well polystyrene tissue culture plates coated with 100 μg/mL poly-L-ornithine (PLO; Sigma) and 8 μg/well VTN-NC. The timelines and relevant growth factors/small molecules for all differentiation procedures are described in detail in the Results section and its accompanying figures. Cells were differentiated for various amounts of time in E6 medium containing the same insulin concentration as E8 medium as described above with varying combinations of soluble factors (product information and concentration ranges are found in Table 2). For neuromesodermal induction and HOX propagation, cells were sequentially cultured with FGF8b, CHIR99021 (CHIR), GDF11, and dorsomorphin (DM) as previously described. Briefly, to initiate the neuromesodermal state, cells were changed to E6 medium followed by addition of FGF8b (200 ng/ml) 24 h later. To generate cervical neuromesodermal progenitors, cells were washed with PBS, treated with accutase, and re-seeded in E6 medium containing 200 ng/ml FGF8b, 3 μM CHIR, and 10 μM Y27632 on VTN-NC-coated plates at a density of 1.5×10^5 cells/cm^2 for 48 h. To generate thoracic neuromesodermal progenitors, cells were passaged again after 72 h of CHIR treatment and re-seeded at different densities as described in the text.
Thoracic identity was reached after an additional 24 h. Then, to reach the lumbosacral level, cells were given 30 ng/ml GDF11 and 1 μM DM for an additional 48 h. For neuroectoderm induction and generation of OLIG2^+ progenitors, FGF8b was removed at the designated time points and the concentration of CHIR was increased for 6 h as described in the text, followed by a transition to media containing RA, PM, and SHH for a period of 48 h. For differentiation of the OLIG2^+ progenitors to motor neurons, cells were subcultured by en bloc passage using a cell scraper, reseeded at a 1:200 ratio in Matrigel-coated 8-well chamber slides, and differentiated for 14 days in E6 medium containing 1 μM RA, 100 nM PM, and 100 ng/mL SHH, with media exchange every 3 days (10 μM Y27632 was included during the en bloc passaging step and removed after the first media exchange). For differentiation of lumbar cultures, 1 μM DM was included in all steps. For the myoblast co-culture experiments, OLIG2^+ cultures were en bloc passaged, frozen in E6 medium containing 10% DMSO, shipped to a different location, and thawed 1:10 in 6-well plates under the same conditions as described in FIG. 5. To facilitate neuronal maturation prior to myoblast co-culture, 5 μM DAPT (Tocris) was added from days 8-14 post-thaw. […]
(In general: A flow cytometer gives signals particle by particle.)

Consider `Cc1c[nH]c(-c2cnc(NCCNc3ccc(C#N)cn3)nc2-c2ccc(Cl)cc2Cl)n1` [CHIR, CHIR99021], for which, in assay [1], the “NKX6.1 induction (flow cytometry)” value was determined as 44±1%. Further, the “NKX6.1 expression (flow cytometry)” value was 91±1% in assay [2] (CHIR 4 μM without BMP4, day 3) and 98±1% in assay [2] (CHIR alone 6 μM, 24 h, analysed day 3). In addition, in assay [2] (CHIR alone 6 μM, 24 h, day 3), the “NKX6.1 and OLIG2 gene expression (RT-PCR)” value was “sufficient to induce NKX6.1 but not OLIG2 gene expression”.
